Results from US20250027050A1, “LONG-TERM CULTURE OF COLORECTAL EPITHELIAL CELLS” (ISM CO., LTD., priority 2021, published 2025).
“Also recorded” adds a separate entry of the source.

Assays:
Type in all cases: cell-based
[1] = test system: Primary human colonic epithelial cells (HCoEpiC); experiment: ExoScreen assay of exosome markers CD9 and CD63 in culture supernatant
Procedure: (§1) Cells were completely dissolved in a water bath at 37° C. and seeded on 10 mL of the complete medium in a 10-cm dish coated with poly-L-lysine (poly-[…] 2 μg/cm^2, SCR) at 2.5×10^5 cells/dish. On the following day, the medium was replaced with a fresh complete medium. The medium was replaced with a complete medium every 3 or 4 days until 70% confluency was reached and then every other day while 70% to 90% confluency was reached. Cells reaching 90% confluency were removed using a 0.05% trypsin/EDTA solution (T/E, SCR) and seeded onto a 12-well plate (Fisher-brand 12-well tissue culture plate with a flat bottom) at 2×10^4 cells/well. Twenty four hours later, the medium was replaced with a complete medium containing or not containing Y-27632 (10 μM), and thereafter the medium was replaced every other day until 90% confluency was reached. When 90% confluency was reached, the cells were subcultured again, and the above-described procedures were continued for 72 days. The culture supernatant in the culture was recovered, and the particle diameter and the particle number were measured using a nanoparticle analysis system NanoSight (NS300, Malvern Panalytical Ltd.). Then, the signal intensities of exosome markers, CD9 and CD63, in the recovered culture supernatant were measured by an ExoScreen assay.

[2] = test system: Primary human colonic epithelial cells (HCoEpiC); experiment: Particle diameter and particle number in culture supernatant by NanoSight
Procedure: as §1

[3] = test system: Primary human colonic epithelial cells (HCoEpiC); experiment: Long-term culture of primary human colonic epithelial cells in the presence of low molecular weight compounds (cell number, morphology); settings: for cell morphology during long-term culture: 10 μM Y-27632 solely added, after 72 days of culture; for continued growth / long-term culture of colorectal epithelial cells (number of cells): complete medium with 10 μM Y-27632 solely added, culture continued for 72 days, compared with A, C, YA, YC groups
Procedure: Regarding Primary human colonic epithelial cells (HCoEpiC), Lot No. 17030 was purchased from ScienCell Research Laboratories, Inc. (SCR, Carlsbad, CA, United States) and used. A complete medium containing 5 mL of a colonic epithelial cell growth supplement (CoEpiCGS, SCR) and 5 mL of penicillin/streptomycin (P/S, SCR) added to 500 mL of a colonic epithelial cell medium (CoEpiCM, SCR) as a basal medium was used as a medium. To investigate the effect on release of exosomes, 10 μM Y-27632 (ROCK inhibitor) (Wako), 0.5 μM A-83-01 (ALK5/7/4 selective inhibitor) (Wako), and 3 μM CHIR99021 (GSK-3 inhibitor) (Axon Medchem, Reston, VA) were used. Cells were completely dissolved in a water bath at 37° C. and seeded on 10 mL of the complete medium in a 10-cm dish coated with poly-L-lysine (poly-[…] 2 μg/cm^2, SCR) at 2.5×10^5 cells/dish. On the following day, the medium was replaced with a fresh complete medium. The medium was replaced with a complete medium every 3 or 4 days until 70% confluency was reached and then every other day while 70% to 90% confluency was reached. Cells reaching 90% confluency were removed using a 0.05% trypsin/EDTA solution (T/E, SCR) and seeded onto a 12-well plate (Fisher-brand 12-well tissue culture plate with a flat bottom) at 2×10^4 cells/well. Twenty four hours later, the medium was replaced with a complete medium containing or not containing Y-27632 (10 μM), and thereafter the medium was replaced every other day until 90% confluency was reached. When 90% confluency was reached, the cells were subcultured again, and the above-described procedures were continued for 72 days.

## C[C@@H](N)[C@H]1CC[C@H](C(=O)Nc2ccncc2)CC1 [Y-27632, (1R,4r)-4-((R)-1-aminoethyl)-N-(pyridin-4-yl)cyclohexanecarboxamide]
[1]; culture supernatant of HCoEpiC cultured in the presence vs absence of Y-27632
  exosomes detected using CD9 and CD63 markers (signal intensity): more exosomes were detected
[1]; in the presence of Y-27632, fraction decreased
  decrease of CD9(+) exosomes after repeated passages: about ⅓
[2]; Day 72 of culture, presence vs absence of Y-27632
  particle number concentration in the medium: higher in the absence of Y-27632
[2]; culture supernatants at Day 28, Day 35, Day 72, Y(+) vs Y(−)
  particle diameter of released vesicles: unchanged
[3]
  cell morphology during long-term culture: the morphology was unchanged
  continued growth / long-term culture of colorectal epithelial cells (number of cells): continued growth over the longest period; also recorded: allowed long-term culture of colorectal epithelial cells
[3]; listed as Y
  cell morphology during long-term culture: no morphological change was observed
  continued growth / long-term culture of colorectal epithelial cells (number of cells): Long-term culture was enabled
